Test results: the NIST ThermoML archive (doi:10.1021/je400486p)
± gives the expanded uncertainty stated by the source.

Experiment: refractive index (Na D-line) (dimensionless); xn = mol fraction of the nth substance listed
Conditions: 101.3 kPa, Liquid, Standard Abbe refractometry

COCCOCCOCCOCCOC [2,5,8,11,14-pentaoxapentadecane] + CCC(C)O
refractive index
Conditions | x2 = 0 | x2 = 0.1007 | x2 = 0.2003 | x2 = 0.3015 | x2 = 0.3991 | x2 = 0.5011 | x2 = 0.6024 | x2 = 0.6997 | x2 = 0.7998 | x2 = 0.9004
288.15 K | 1.4345 ± 0.00037 | 1.43266 ± 0.00036 | 1.43063 ± 0.00036 | 1.42851 ± 0.00035 | 1.42627 ± 0.00035 | 1.42333 ± 0.00034 | 1.41994 ± 0.00034 | 1.41632 ± 0.00034 | 1.41171 ± 0.00033 | 1.40624 ± 0.00033
293.15 K | 1.43238 ± 0.00037 | 1.43054 ± 0.00036 | 1.42851 ± 0.00036 | 1.42637 ± 0.00035 | 1.42412 ± 0.00035 | 1.42118 ± 0.00034 | 1.41778 ± 0.00034 | 1.41418 ± 0.00034 | 1.4096 ± 0.00033 | 1.40412 ± 0.00033
298.15 K | 1.43027 ± 0.00037 | 1.42843 ± 0.00036 | 1.42637 ± 0.00036 | 1.42424 ± 0.00035 | 1.42197 ± 0.00035 | 1.41902 ± 0.00034 | 1.41562 ± 0.00034 | 1.41202 ± 0.00034 | 1.40743 ± 0.00033 | 1.40197 ± 0.00033
303.15 K | 1.42815 ± 0.00037 | 1.42631 ± 0.00036 | 1.42424 ± 0.00036 | 1.4221 ± 0.00035 | 1.41983 ± 0.00035 | 1.41687 ± 0.00034 | 1.41347 ± 0.00034 | 1.40983 ± 0.00034 | 1.40522 ± 0.00033 | 1.39977 ± 0.00033
308.15 K | 1.42603 ± 0.00037 | 1.4242 ± 0.00036 | 1.42212 ± 0.00036 | 1.41998 ± 0.00035 | 1.41768 ± 0.00035 | 1.41473 ± 0.00034 | 1.41133 ± 0.00034 | 1.40765 ± 0.00034 | 1.40302 ± 0.00033 | 1.39751 ± 0.00033
313.15 K | 1.42394 ± 0.00037 | 1.42209 ± 0.00036 | 1.42001 ± 0.00036 | 1.41785 ± 0.00035 | 1.4155 ± 0.00035 | 1.41255 ± 0.00034 | 1.40915 ± 0.00034 | 1.40543 ± 0.00034 | 1.40077 ± 0.00033 | 1.39524 ± 0.00033
318.15 K | 1.42183 ± 0.00037 | 1.42003 ± 0.00036 | 1.4179 ± 0.00036 | 1.41571 ± 0.00035 | 1.41339 ± 0.00035 | 1.41039 ± 0.00034 | 1.40698 ± 0.00034 | 1.40327 ± 0.00034 | 1.39857 ± 0.00033 | 1.393 ± 0.00033
323.15 K | 1.41973 ± 0.00037 | 1.41794 ± 0.00036 | 1.4158 ± 0.00036 | 1.4136 ± 0.00035 | 1.41127 ± 0.00035 | 1.40823 ± 0.00034 | 1.40477 ± 0.00034 | 1.40104 ± 0.00034 | 1.39628 ± 0.00033 | 1.39067 ± 0.00033
